Data: US12469647B2, “Electrolytic capacitor” (Panasonic Intellectual Property Management Co., Ltd., priority 2020, dated 2025)

Assay: acid dissociation constant (pKa) of the conjugate acid of the base component
Conditions: water
From the text: The pKa of the conjugate acid of the base is the pKa of the cation of the base.

Row | SMILES | pKa
1 | CCCCN1CCOCC1 [N-butylmorpholine] | 7.5
2 | CCCCNCCCC [dibutylamine] | 11.3
3 | CC(C)CN(CC(C)C)CC(C)C [triisobutylamine] | 9.5
